Biological target: T1, Mas-related G-protein coupled receptor member X2 (Homo sapiens, UniProt Q96LB1)
T1 sequence (Q96LB1 whole entry): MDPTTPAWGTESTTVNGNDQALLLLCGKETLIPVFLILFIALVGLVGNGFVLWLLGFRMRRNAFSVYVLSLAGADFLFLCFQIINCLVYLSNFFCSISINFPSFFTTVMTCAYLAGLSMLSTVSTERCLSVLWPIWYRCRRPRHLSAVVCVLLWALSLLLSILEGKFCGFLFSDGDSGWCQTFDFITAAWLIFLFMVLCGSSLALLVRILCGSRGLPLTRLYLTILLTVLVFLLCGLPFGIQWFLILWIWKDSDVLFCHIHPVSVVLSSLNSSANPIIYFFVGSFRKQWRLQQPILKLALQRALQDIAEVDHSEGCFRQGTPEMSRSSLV
Test: Inhibition of human MRGPRX2 expressed in CHO-K1 cells assessed as Ca2+ release incubated for 30 mins by FLIPR calcium mobilization assay
Assay type: functional, cell-based

SMILES | IC50 [nM]
Cc1csc(C2(CNc3cc(C(F)(F)F)nc4ccc(Cl)cc34)CN(S(N)(=O)=O)C2)n1 | 0.1
NC(=O)N1CCC(CNc2cc(C(F)(F)F)nc3ccc(Cl)cc23)(c2ccc(F)cn2)C1 (stereo unspecified) | 0.1
N#Cc1cnn(C2(CNc3cc(C(F)(F)F)nc4ccc(Cl)cc34)CN(C(N)=O)C2)c1 | 0.1

The remaining lines, values ahead:

IC50 [nM] | SMILES
0.1 | NS(=O)(=O)N1CC(CNc2cc(C(F)(F)F)nc3ccc(Cl)cc23)(c2ccc3ccccc3n2)C1
0.1 | NS(=O)(=O)N1CCC(CNc2cc(C(F)(F)F)nc3ccc(Cl)cc23)(c2ccc(F)cn2)CC1
0.1 | NS(=O)(=O)N1CC(CNc2cc(C(F)(F)F)nc3ccc(Br)cc23)(c2ccc(F)cc2)C1

Source: ChEMBL document CHEMBL6134914, “Novel Bicyclic Heterocycles as MRGPRX2 Antagonists for Treating Inflammatory Diseases” (ACS Med Chem Lett, 2025)
